From patent publication US7678796B2, “MGluR5 modulators I” (AstraZeneca AB, priority 2006, dated 2010)
pIC50: −log10 of the molar value.

Experiments:
human mGluR5d = molecular target: T1, human mGluR5d (Homo sapiens, UniProt P41594); test: FLIPR assay, functional assessment of mGluR5 antagonism (intracellular calcium mobilization); type: cell-based; details: cells expressing human mGluR5d; read-out: FLIPR hmGluR5d
T1 construct: expressed in transfected cells
Text: Biological Evaluation Functional Assessment of mGluR5 Antagonism in Cell Lines Expressing mGluR5D
The properties of the compounds of the invention can be analyzed using standard assays for pharmacological activity. Examples of glutamate receptor assays are well known in the art as described in for example Aramori et al., Neuron 8:757 (1992), Tanabe et al., Neuron 8:169 (1992), Miller et al., J. Neuroscience 15: 6103 (1995), Balazs, et al., J. Neurochemistry 69:151 (1997). The methodology described in these publications is incorporated herein by reference. Conveniently, the compounds of the invention can be studied by means of an assay (FLIPR) that measures the mobilization of intracellular calcium, [Ca^2+]i in cells expressing mGluR5 or another assay (IP3) that measures inositol phosphate turnover.
Cells expressing human mGluR5d as described in WO97/05252 are seeded at a density of 100,000 cells per well on collagen coated clear bottom 96-well plates with black sides and experiments are done 24 h following seeding. All assays are done in a buffer containing 127 mM NaCl, 5 mM KCl, 2 mM MgCl2, 0.7 mM NaH2PO4, 2 mM CaCl2, 0.422 mg/mL NaHCO3, 2.4 mg/mL HEPES, 1.8 mg/mL glucose and 1 mg/mL BSA Fraction IV (pH 7.4). Cell cultures in the 96-well plates are loaded for 60 minutes in the above mentioned buffer containing 4 μM of the acetoxymethyl ester form of the fluorescent calcium indicator fluo-3 (Molecular Probes, Eugene, Oreg.) in 0.01% pluronic acid (a proprietary, non-ionic surfactant polyol—CAS Number 9003-11-6). Following the loading period the fluo-3 buffer is removed and replaced with fresh assay buffer. FLIPR experiments are done using a laser setting of 0.800 W and a 0.4 second CCD camera shutter speed with excitation and emission wavelengths of 488 nm and 562 nm, respectively. Each experiment is initiated with 160 μl of buffer present in each well of the cell plate. A 40 μl addition from the antagonist plate was followed by a 50 μL addition from the agonist plate. A 30 minute interval separates the antagonist and agonist additions. The fluorescence signal is sampled 50 times at 1 second intervals followed by 3 samples at 5 second intervals immediately after each of the two additions. Responses are measured as the difference between the peak height of the response to agonist, less the background fluorescence within the sample period. IC50 determinations are made using a linear least squares fitting program.

[1] = Determination of brain to plasma ratio in rat; type: in vivo; details: female Sprague Dawley rats, read-out: Brain/Plasma Ratio of compound in Rat
Procedure: Brain to plasma ratios are estimated in female Sprague Dawley rats. The compound is dissolved in water or another appropriate vehicle. For determination of brain to plasma ratio the compound is administrated as a subcutaneous, or an intravenous bolus injection, or an intravenous infusion, or an oral administration. At a predetermined time point after the administration a blood sample is taken with cardiac puncture. The rat is terminated by cutting the heart open, and the brain is immediately retained. The blood samples are collected in heparinized tubes and centrifuged within 30 minutes, in order to separate the plasma from the blood cells. The plasma is transferred to 96-well plates and stored at −20° C. until analysis. The brains are divided in half, and each half is placed in a pre-tarred tube and stored at −20° C. until analysis. Prior to the analysis, the brain samples are thawed and 3 mL/g brain tissue of distilled water is added to the tubes. The brain samples are sonicated in an ice bath until the samples are homogenized. Both brain and plasma samples are precipitated with acetonitrile. After centrifugation, the supernatant is diluted with 0.2% formic acid. Analysis is performed on a short reversed-phase HPLC column with rapid gradient elution and MSMS detection using a triple quadrupole instrument with electrospray ionisation and Selected Reaction Monitoring (SRM) acquisition. Liquid-liquid extraction may be used as an alternative sample clean-up. The samples are extracted, by shaking, to an organic solvent after addition of a suitable buffer. An aliquot of the organic layer is transferred to a new vial and evaporated to dryness under a stream of nitrogen. After reconstitution of the residuals the samples are ready for injection onto the HPLC column.

HERG = HERG (Homo sapiens, UniProt Q12809); test: HERG ionworks; type: cell-based
Chain of HERG (Q12809 whole entry): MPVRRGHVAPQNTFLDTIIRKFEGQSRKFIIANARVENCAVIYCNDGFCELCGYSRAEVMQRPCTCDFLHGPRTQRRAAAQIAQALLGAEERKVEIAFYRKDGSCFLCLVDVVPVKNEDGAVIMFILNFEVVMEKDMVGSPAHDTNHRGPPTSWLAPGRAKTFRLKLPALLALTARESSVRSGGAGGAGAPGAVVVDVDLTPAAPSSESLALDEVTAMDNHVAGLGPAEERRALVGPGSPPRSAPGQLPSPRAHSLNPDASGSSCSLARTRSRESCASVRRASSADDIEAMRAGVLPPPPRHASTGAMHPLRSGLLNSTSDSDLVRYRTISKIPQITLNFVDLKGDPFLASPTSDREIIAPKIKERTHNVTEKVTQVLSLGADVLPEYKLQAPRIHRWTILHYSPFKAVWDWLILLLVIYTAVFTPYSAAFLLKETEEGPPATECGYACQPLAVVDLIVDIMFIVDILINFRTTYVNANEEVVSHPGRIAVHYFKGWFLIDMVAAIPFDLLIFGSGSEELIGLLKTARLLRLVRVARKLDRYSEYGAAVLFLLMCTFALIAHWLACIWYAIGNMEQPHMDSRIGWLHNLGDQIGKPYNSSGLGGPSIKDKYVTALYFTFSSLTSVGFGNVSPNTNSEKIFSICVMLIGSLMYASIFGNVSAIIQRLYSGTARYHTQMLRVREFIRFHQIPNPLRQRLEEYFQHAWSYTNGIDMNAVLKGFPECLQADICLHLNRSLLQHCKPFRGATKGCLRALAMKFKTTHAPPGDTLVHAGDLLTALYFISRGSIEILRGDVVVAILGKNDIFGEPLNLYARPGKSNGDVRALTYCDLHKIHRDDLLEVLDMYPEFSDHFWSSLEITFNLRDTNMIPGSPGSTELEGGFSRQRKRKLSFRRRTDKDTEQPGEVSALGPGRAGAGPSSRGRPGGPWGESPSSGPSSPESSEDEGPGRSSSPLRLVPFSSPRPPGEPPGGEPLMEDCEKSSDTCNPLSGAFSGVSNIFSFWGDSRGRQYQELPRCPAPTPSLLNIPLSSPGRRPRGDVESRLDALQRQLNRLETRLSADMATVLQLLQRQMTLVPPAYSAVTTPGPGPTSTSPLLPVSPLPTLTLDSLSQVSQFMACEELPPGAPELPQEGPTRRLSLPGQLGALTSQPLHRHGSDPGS

[2] = Determination of in vitro stability in human liver microsomes (CLint); type: in vitro ADME; details: pH 7.4, 0.5 mg/mL protein, 1.0 μmol/L compound, NADPH
Procedure: Rat liver microsomes are prepared from Sprague-Dawley rats liver samples. Human liver microsomes are either prepared from human liver samples or acquired from BD Gentest. The compounds are incubated at 37° C. at a total microsome protein concentration of 0.5 mg/mL in a 0.1 mol/L potassium phosphate buffer at pH 7.4, in the presence of the cofactor, NADPH (1.0 mmol/L). The initial concentration of compound is 1.0 μmol/L. Samples are taken for analysis at 5 time points, 0, 7, 15, 20 and 30 minutes after the start of the incubation. The enzymatic activity in the collected sample is immediately stopped by adding a 3.5 times volume of acetonitrile. The concentration of compound remaining in each of the collected samples is determined by means of LC-MS. The elimination rate constant (k) of the mGluR5 inhibitor is calculated as the slope of the plot of In[mGluR5 inhibitor] against incubation time (minutes). The elimination rate constant is then used to calculate the half-life (T ½) of the mGluR5 inhibitor, which is subsequently used to calculate the intrinsic clearance (CLint) of the mGluR5 inhibitor in liver microsomes as: CLint.=(ln 2×incubation volume)/(T ½×protein concentration)=μl/min/mg

T1 sequence (P41594 21-942 isoform P41594-3 limits assumed): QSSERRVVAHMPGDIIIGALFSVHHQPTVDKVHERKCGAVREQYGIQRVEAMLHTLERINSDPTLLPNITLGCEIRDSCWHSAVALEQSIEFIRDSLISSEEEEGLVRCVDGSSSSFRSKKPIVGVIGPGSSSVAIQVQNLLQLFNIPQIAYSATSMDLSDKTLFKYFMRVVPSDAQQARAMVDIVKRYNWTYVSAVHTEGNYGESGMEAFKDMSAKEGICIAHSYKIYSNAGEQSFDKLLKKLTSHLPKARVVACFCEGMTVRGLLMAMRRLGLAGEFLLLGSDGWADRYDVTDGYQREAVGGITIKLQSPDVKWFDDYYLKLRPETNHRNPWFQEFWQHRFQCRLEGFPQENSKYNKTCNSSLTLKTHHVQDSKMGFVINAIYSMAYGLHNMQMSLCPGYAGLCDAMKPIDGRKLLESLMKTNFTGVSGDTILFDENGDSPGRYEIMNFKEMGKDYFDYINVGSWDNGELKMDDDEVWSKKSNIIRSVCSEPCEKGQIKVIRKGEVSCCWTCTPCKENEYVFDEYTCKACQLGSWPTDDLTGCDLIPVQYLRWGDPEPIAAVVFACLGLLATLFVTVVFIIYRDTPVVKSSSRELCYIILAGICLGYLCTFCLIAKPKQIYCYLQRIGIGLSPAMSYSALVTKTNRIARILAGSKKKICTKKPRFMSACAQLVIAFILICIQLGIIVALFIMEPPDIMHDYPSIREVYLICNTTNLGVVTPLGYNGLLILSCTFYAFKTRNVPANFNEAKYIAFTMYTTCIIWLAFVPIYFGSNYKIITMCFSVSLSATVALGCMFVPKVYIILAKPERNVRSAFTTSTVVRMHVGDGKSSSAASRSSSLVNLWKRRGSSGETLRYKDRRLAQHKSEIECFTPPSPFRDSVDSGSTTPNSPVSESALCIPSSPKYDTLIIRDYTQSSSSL

| SMILES | pIC50 (human mGluR5d) | Kp [1] | HERG ionworks (HERG) [µM] | microsomal CLint at 1 μmol/L [2] [µL/min/mg] |
| --- | --- | --- | --- | --- |
| Cn1c(-c2ccc(=O)n(C)c2)nnc1N1CCC[C@@H]1c1cc(-c2cccc(Cl)c2)on1 [Example 31.7, 5-(5-{(R)-2-[5-(3-Chloro-phenyl)-isoxazol-3-yl]-pyrrolidin-1-yl}-4-methyl-4H-[1,2,4]triazol-3-yl)-1-methyl-1H-pyridin-2-one] | 7.33 | 0.005 | 23 | < 12 |
| Cn1c(-c2ccnnc2)nnc1N1CCC[C@@H]1c1cc(-c2cccc(Cl)c2)on1 [Example 31.8, 4-(5-{(R)-2-[5-(3-Chloro-phenyl)-isoxazol-3-yl]-pyrrolidin-1-yl}-4-methyl-4H-[1,2,4]triazol-3-yl)-pyridazine] | 7.60 | 0.11 | 16 | < 12 |
| Cn1c(-c2ccn(C)c(=O)c2)nnc1N1CCC[C@@H]1c1nnn(-c2cccc(Cl)c2)n1 [Example 31.11, 4-(5-{(R)-2-[2-(3-Chloro-phenyl)-2H-tetrazol-5-yl]-pyrrolidin-1-yl}-4-methyl-4H-[1,2,4]triazol-3-yl)-1-methyl-1H-pyridin-2-one] | 7.41 | 0.035 | 20 | < 12 |
| Cc1cccc(-c2cc([C@H]3CCCN3c3nnc(-c4ccn(C)c(=O)c4)n3C)no2)c1 [Example 31.19, 1-Methyl-4-{4-methyl-5-[(R)-2-(5-m-tolylisoxazol-3-yl)pyrrolidin-1-yl]-4H-[1,2,4]triazol-3-yl}-1H-pyridin-2-one] | 7.30 | 0.01 | 24 | < 12 |
